Holding throughout (experiment): cAMP induction, firefly luciferase reporter assay in HEK293 cells co-transfected with receptor
Holding throughout (type): cell-based
(In general: In a reporter assay the amount or activity of a reporter protein is the signal.)

For test [1], the target named is T1, GIP receptor (Homo sapiens, UniProt P48546).
T1 construct: expressed in transfected cells; host or cells: HEK293
T1 sequence (P48546 22-466): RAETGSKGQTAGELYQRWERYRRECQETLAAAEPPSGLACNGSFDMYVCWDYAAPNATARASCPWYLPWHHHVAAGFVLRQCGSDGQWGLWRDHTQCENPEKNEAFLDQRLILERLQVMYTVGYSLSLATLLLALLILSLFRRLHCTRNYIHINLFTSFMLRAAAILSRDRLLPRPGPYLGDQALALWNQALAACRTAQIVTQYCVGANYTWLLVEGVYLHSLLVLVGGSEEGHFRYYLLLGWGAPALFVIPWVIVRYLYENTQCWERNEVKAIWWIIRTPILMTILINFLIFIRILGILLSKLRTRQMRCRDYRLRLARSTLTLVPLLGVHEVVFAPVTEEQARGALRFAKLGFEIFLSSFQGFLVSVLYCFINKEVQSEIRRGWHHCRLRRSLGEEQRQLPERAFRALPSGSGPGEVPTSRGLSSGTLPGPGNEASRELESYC
Here is the method: (§1) The ability of glucagon analogs to induce cAMP was measured in a firefly luciferase-based reporter assay. […] At the end of the incubation 100 microliters of LucLite luminescence substrate reagent (Perkin-Elmer, Wellesley, Mass.) were added to each well. […] Effective 50% concentrations were calculated by using Origin software (OriginLab, Northampton, Mass.

The target of test [2] is T2, GLP-1 receptor (Homo sapiens, UniProt P43220).
T2 construct: expressed in transfected cells; host or cells: HEK293
T2 sequence (P43220 24-463): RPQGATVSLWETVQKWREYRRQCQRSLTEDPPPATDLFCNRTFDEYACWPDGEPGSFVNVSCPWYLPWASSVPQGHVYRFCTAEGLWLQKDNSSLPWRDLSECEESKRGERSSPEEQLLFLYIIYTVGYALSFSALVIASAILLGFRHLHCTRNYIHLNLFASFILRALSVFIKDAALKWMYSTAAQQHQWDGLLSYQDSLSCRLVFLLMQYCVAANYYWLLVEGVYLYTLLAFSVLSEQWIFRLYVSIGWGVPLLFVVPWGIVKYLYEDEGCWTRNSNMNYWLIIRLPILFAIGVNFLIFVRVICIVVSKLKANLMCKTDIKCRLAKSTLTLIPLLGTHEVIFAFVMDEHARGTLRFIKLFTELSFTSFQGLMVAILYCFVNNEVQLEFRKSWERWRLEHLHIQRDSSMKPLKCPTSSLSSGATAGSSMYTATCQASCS
As to the method:
as §1

Test [3] deals with T3, glucagon receptor (Homo sapiens, UniProt P47871).
T3 construct: expressed in transfected cells; host or cells: HEK293
T3 sequence (P47871 26-477): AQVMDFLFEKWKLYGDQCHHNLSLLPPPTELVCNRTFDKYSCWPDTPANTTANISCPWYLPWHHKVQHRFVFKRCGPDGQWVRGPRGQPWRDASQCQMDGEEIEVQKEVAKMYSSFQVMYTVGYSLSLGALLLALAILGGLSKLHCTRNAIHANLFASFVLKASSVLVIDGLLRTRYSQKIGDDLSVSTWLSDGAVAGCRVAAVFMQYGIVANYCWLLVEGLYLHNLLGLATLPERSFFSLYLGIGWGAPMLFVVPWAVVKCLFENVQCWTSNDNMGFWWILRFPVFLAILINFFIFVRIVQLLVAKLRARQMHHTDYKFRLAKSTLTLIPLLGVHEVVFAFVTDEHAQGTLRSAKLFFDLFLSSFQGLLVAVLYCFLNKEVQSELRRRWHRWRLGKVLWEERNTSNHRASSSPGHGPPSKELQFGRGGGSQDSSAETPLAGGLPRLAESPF
Here is the method:
as §1

Where [4] appears, read: Table 1, analogs of SEQ ID NO: 37.
Setting [5] is: Table 2, analogs of SEQ ID NO: 10.

Molecules are shown by their SMILES. Numbered stars: 1 amine (or outer) side, 2 acyl side, 3 side chain; on linkers, the order of the positions; unused ones are H or OH. Square brackets hold non-standard residues; d marks the D form. Side chains are listed from the residue outwards. Peptide text beside a SMILES is read from it. * marks the point of attachment. γGlu = O=C(O)[C@H](CCC(=O)[*:2])N[*:1]; Desaminohistidyl = O=C(CCc1c[nH]cn1)*; Palmitoyl = CCCCCCCCCCCCCCCC(=O)*; 2Thi = N[C@@H](Cc1cccs1)C(=O)O; Aib = CC(C)(N)C(=O)O

This passage reports EC50 results from patent US9868772B2 (INDIANA UNIVERSITY RESEARCH AND TECHNOLOGY CORPORATION, priority 2012, dated 2018).

On to `CCCCCCCCCCCCCCCC(=O)N[C@@H](CCC(=O)NCCCC[C@H](NC(=O)[C@H](CC(=O)O)NC(=O)[C@H](CO)NC(=O)[C@@H](NC(=O)[C@H](Cc1ccccc1)NC(=O)[C@@H](NC(=O)CNC(=O)[C@H](CCC(N)=O)NC(=O)CNC(=O)CCc1c[nH]cn1)[C@@H](C)O)[C@@H](C)O)C(=O)N[C@@H](CO)C(=O)N[C@@H](CCCCN)C(=O)N[C@@H](Cc1ccc(O)cc1)C(=O)N[C@@H](CC(C)C)C(=O)N[C@@H](CC(=O)O)C(=O)N[C@@H](CCC(=O)O)C(=O)N[C@@H](CCCNC(=N)N)C(=O)N[C@@H](C)C(=O)N[C@@H](C)C(=O)N[C@@H](CCC(N)=O)C(=O)N[C@@H](CC(=O)O)C(=O)N[C@@H](Cc1ccccc1)C(=O)N[C@H](C(=O)N[C@@H](CCC(N)=O)C(=O)N[C@@H](Cc1c[nH]c2ccccc12)C(=O)N[C@@H](CC(C)C)C(=O)N[C@@H](CC(C)C)C(=O)N[C@@H](CCC(=O)O)C(=O)NCC(=O)NCC(=O)N1CCC[C@H]1C(=O)N[C@@H](CO)C(=O)N[C@@H](CO)C(=O)NCC(=O)N[C@@H](C)C(=O)N1CCC[C@H]1C(=O)N1CCC[C@H]1C(=O)N1CCC[C@H]1C(=O)N[C@@H](CO)C(N)=O)C(C)C)C(=O)O` [compound 31] (Desaminohistidyl-GQGTFTSDK([γGlu-Palmitoyl])SKYLDERAAQDFVQWLLEGGPSSGAPPPS-NH2), for which the EC50 in test [1] (setting [4]) came out at 0.226 nM; in test [2] (setting [4]), 0.003 nM; in test [3] (setting [4]) it was 0.022 nM.

Turning to `CCCCCCCCCCCCCCCC(=O)N[C@@H](CCC(=O)NCCCC[C@H](NC(=O)[C@H](CC(=O)O)NC(=O)[C@H](CO)NC(=O)[C@@H](NC(=O)[C@H](Cc1ccccc1)NC(=O)[C@@H](NC(=O)CNC(=O)[C@H](CCC(N)=O)NC(=O)[C@@H]1CCCN1C(=O)[C@@H](N)Cc1cccs1)[C@@H](C)O)[C@@H](C)O)C(=O)N[C@@H](CO)C(=O)N[C@@H](CCCCN)C(=O)N[C@@H](Cc1ccc(O)cc1)C(=O)N[C@@H](CC(C)C)C(=O)N[C@@H](CC(=O)O)C(=O)N[C@@H](CCC(=O)O)C(=O)N[C@@H](CCCNC(=N)N)C(=O)N[C@@H](C)C(=O)N[C@@H](C)C(=O)N[C@@H](CCC(N)=O)C(=O)N[C@@H](CC(=O)O)C(=O)N[C@@H](Cc1ccccc1)C(=O)N[C@H](C(=O)N[C@@H](CCC(N)=O)C(=O)N[C@@H](Cc1c[nH]c2ccccc12)C(=O)N[C@@H](CC(C)C)C(=O)N[C@@H](CC(C)C)C(=O)N[C@@H](CCC(=O)O)C(=O)NCC(=O)NCC(=O)N1CCC[C@H]1C(=O)N[C@@H](CO)C(=O)N[C@@H](CO)C(=O)NCC(=O)N[C@@H](C)C(=O)N1CCC[C@H]1C(=O)N1CCC[C@H]1C(=O)N1CCC[C@H]1C(=O)N[C@@H](CO)C(N)=O)C(C)C)C(=O)O` [compound 33] (H-[2Thi]PQGTFTSDK([γGlu-Palmitoyl])SKYLDERAAQDFVQWLLEGGPSSGAPPPS-NH2), the EC50 came to 0.43 nM in test [1] (setting [4]), 0.005 nM in test [2] (setting [4]) and 0.121 nM in test [3] (setting [4]).

In the case of `CCCCCCCCCCCCCCCC(=O)N[C@@H](CCC(=O)NCCCC[C@H](NC(=O)[C@H](CC(=O)O)NC(=O)[C@H](CO)NC(=O)[C@@H](NC(=O)[C@H](Cc1ccccc1)NC(=O)[C@@H](NC(=O)CNC(=O)[C@H](CCC(N)=O)NC(=O)CNC(=O)[C@H](CCC(N)=O)NC(C)=O)[C@@H](C)O)[C@@H](C)O)C(=O)N[C@@H](CO)C(=O)N[C@@H](CCCCN)C(=O)N[C@@H](Cc1ccc(O)cc1)C(=O)N[C@@H](CC(C)C)C(=O)N[C@@H](CC(=O)O)C(=O)N[C@@H](CCC(=O)O)C(=O)N[C@@H](CCCNC(=N)N)C(=O)N[C@@H](C)C(=O)N[C@@H](C)C(=O)N[C@@H](CCC(N)=O)C(=O)N[C@@H](CC(=O)O)C(=O)N[C@@H](Cc1ccccc1)C(=O)N[C@H](C(=O)N[C@@H](CCC(N)=O)C(=O)N[C@@H](Cc1c[nH]c2ccccc12)C(=O)N[C@@H](CC(C)C)C(=O)N[C@@H](CC(C)C)C(=O)N[C@@H](CCC(=O)O)C(=O)NCC(=O)NCC(=O)N1CCC[C@H]1C(=O)N[C@@H](CO)C(=O)N[C@@H](CO)C(=O)NCC(=O)N[C@@H](C)C(=O)N1CCC[C@H]1C(=O)N1CCC[C@H]1C(=O)N1CCC[C@H]1C(=O)N[C@@H](CO)C(N)=O)C(C)C)C(=O)O` [compound 34] (Ac-QGQGTFTSDK([γGlu-Palmitoyl])SKYLDERAAQDFVQWLLEGGPSSGAPPPS-NH2), the EC50 in test [1] (setting [4]) is 0.436 nM; in test [2] (setting [4]), 0.611 nM; in test [3] (setting [4]) it was 0.163 nM.

For `CCCCCCCCCCCCCCCC(=O)N[C@@H](CCC(=O)NCCCC[C@H](NC(=O)[C@H](CC(=O)O)NC(=O)[C@H](CO)NC(=O)[C@@H](NC(=O)[C@H](Cc1ccccc1)NC(=O)[C@@H](NC(=O)CNC(=O)[C@H](CCC(N)=O)NC(=O)C(C)(C)NC(=O)[C@@H](N)Cc1c[nH]cn1)[C@@H](C)O)[C@@H](C)O)C(=O)N[C@@H](CO)C(=O)N[C@@H](CCCCN)C(=O)N[C@@H](Cc1ccc(O)cc1)C(=O)N[C@@H](CC(C)C)C(=O)N[C@@H](CC(=O)O)C(=O)N[C@@H](CCC(=O)O)C(=O)N[C@@H](CCCNC(=N)N)C(=O)N[C@@H](C)C(=O)N[C@@H](C)C(=O)N[C@@H](CCC(N)=O)C(=O)N[C@@H](CC(=O)O)C(=O)N[C@@H](Cc1ccccc1)C(=O)N[C@H](C(=O)N[C@@H](CCC(N)=O)C(=O)N[C@@H](Cc1c[nH]c2ccccc12)C(=O)N[C@@H](CC(C)C)C(=O)N[C@@H](CC(C)C)C(=O)N[C@@H](CCC(=O)O)C(=O)NCC(=O)NCC(=O)N1CCC[C@H]1C(=O)N[C@@H](CO)C(=O)N[C@@H](CO)C(=O)NCC(=O)N[C@@H](C)C(=O)N1CCC[C@H]1C(=O)N1CCC[C@H]1C(=O)N1CCC[C@H]1C(=O)N[C@@H](CO)C(N)=O)C(C)C)C(=O)O` [compound 37] (H-H[Aib]QGTFTSDK([γGlu-Palmitoyl])SKYLDERAAQDFVQWLLEGGPSSGAPPPS-NH2; N-terminus assumed), the EC50 in test [1] (setting [4]) came to 0.003 nM; in test [2] (setting [4]), 0.006 nM; in test [3] (setting [4]) it was 0.009 nM.

On to `CCCCCCCCCCCCCCCC(=O)N[C@@H](CCC(=O)NCCCC[C@H](NC(=O)[C@H](CC(=O)O)NC(=O)[C@H](CO)NC(=O)[C@@H](NC(=O)[C@H](Cc1ccccc1)NC(=O)[C@@H](NC(=O)CNC(=O)[C@H](CCC(=O)O)NC(=O)[C@H](C)NC(=O)[C@@H](Cc1ccc(O)cc1)NC(C)=O)[C@@H](C)O)[C@@H](C)O)C(=O)N[C@@H](CO)C(=O)N[C@@H](CCCCN)C(=O)N[C@@H](Cc1ccc(O)cc1)C(=O)N[C@@H](CC(C)C)C(=O)N[C@@H](CC(=O)O)C(=O)N[C@@H](CCC(=O)O)C(=O)N[C@@H](CCCNC(=N)N)C(=O)N[C@@H](C)C(=O)N[C@@H](C)C(=O)N[C@@H](CCC(N)=O)C(=O)N[C@@H](CC(=O)O)C(=O)N[C@@H](Cc1ccccc1)C(=O)N[C@H](C(=O)N[C@@H](CCC(N)=O)C(=O)N[C@@H](Cc1c[nH]c2ccccc12)C(=O)N[C@@H](CC(C)C)C(=O)N[C@@H](CC(C)C)C(=O)N[C@@H](CCC(=O)O)C(=O)NCC(=O)NCC(=O)N1CCC[C@H]1C(=O)N[C@@H](CO)C(=O)N[C@@H](CO)C(=O)NCC(=O)N[C@@H](C)C(=O)N1CCC[C@H]1C(=O)N1CCC[C@H]1C(=O)N1CCC[C@H]1C(=O)N[C@@H](CO)C(N)=O)C(C)C)C(=O)O` [compound 141], for which the EC50 in test [1] (setting [5]) turned out to be 0.002 nM; in test [2] (setting [5]) it was 0.006 nM; in test [3] (setting [5]) it was 0.419 nM.

On to `CCCCCCCCCCCCCCCC(=O)N[C@@H](CCC(=O)NCCCC[C@H](NC(=O)[C@H](CC(=O)O)NC(=O)[C@H](CO)NC(=O)[C@@H](NC(=O)[C@H](Cc1ccccc1)NC(=O)[C@@H](NC(=O)CNC(=O)[C@H](CC(C)C)NC(=O)[C@H](C)NC(=O)[C@@H](Cc1ccc(O)cc1)NC(C)=O)[C@@H](C)O)[C@@H](C)O)C(=O)N[C@@H](CO)C(=O)N[C@@H](CCCCN)C(=O)N[C@@H](Cc1ccc(O)cc1)C(=O)N[C@@H](CC(C)C)C(=O)N[C@@H](CC(=O)O)C(=O)N[C@@H](CCC(=O)O)C(=O)N[C@@H](CCCNC(=N)N)C(=O)N[C@@H](C)C(=O)N[C@@H](C)C(=O)N[C@@H](CCC(N)=O)C(=O)N[C@@H](CC(=O)O)C(=O)N[C@@H](Cc1ccccc1)C(=O)N[C@H](C(=O)N[C@@H](CCC(N)=O)C(=O)N[C@@H](Cc1c[nH]c2ccccc12)C(=O)N[C@@H](CC(C)C)C(=O)N[C@@H](CC(C)C)C(=O)N[C@@H](CCC(=O)O)C(=O)NCC(=O)NCC(=O)N1CCC[C@H]1C(=O)N[C@@H](CO)C(=O)N[C@@H](CO)C(=O)NCC(=O)N[C@@H](C)C(=O)N1CCC[C@H]1C(=O)N1CCC[C@H]1C(=O)N1CCC[C@H]1C(=O)N[C@@H](CO)C(N)=O)C(C)C)C(=O)O` [compound 142] (Ac-[dY]ALGTFTSDK([γGlu-Palmitoyl])SKYLDERAAQDFVQWLLEGGPSSGAPPPS-NH2), for which the EC50 amounted to 0.002 nM in test [1] (setting [5]), 0.005 nM in test [2] (setting [5]) and 0.103 nM in test [3] (setting [5]).

For orientation: EC50 means the midpoint of the concentration-response curve.
